Data as given in patent publication US4055640A, “Compositions and methods for controlling the growth of bacteria, fungi and algae using certain derivatives of N-(2,2-dichlorovinyl)salicylamides” (Nippon Kayaku Co., Ltd., priority 1975, dated 1977).

Tests used:
[1] = system: Rhizoctonia solani (damping-off of cucumber); assay: Exterminating test on damping-off of cucumber (Experimental Example 3); type: in vivo; conditions: 1,000 ppm, soil drench 50 ml per pot, 10 days
In short: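 Pots of field soil infested with Rhizoctonia solani (5 g/pot), sown with 10 Azumamidori cucumber seeds, then drenched with 50 ml aqueous suspension of 80% wettable powder and kept in greenhouse. PCNB 50% wettable powder as control. Percentage of healthy seedlings scored 10 days after inoculation.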

[2] = system: Fusarium wilt of cucumber; assay: Exterminating test on Fusarium wilt of cucumber (Experimental Example 4); type: in vivo, Fusarium oxysporum f, cucumerinum; conditions: 500 ppm, soil drench 100 ml per pot, two weeks
In short: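 Pots of steam-sterilized soil mixed with 20 g infested soil, sown with 18 cucumber seeds (Tokiwazibai), drenched with 100 ml aqueous suspension of 80% wettable powder. Benlate 50% wettable powder run as control. Disease scored two weeks after planting as percentage of healthy seedlings.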

[3] = system: Aspergillus niger, Penicillium citrinum, Cladosporium harbarum and chaetomium globosum; assay: Degree of growth inhibition of fungi on treated beach plates (Example 17); type: cell-based; parameters: scale not given here; conditions: numerical rating, 2 weeks
Description: The emulsifiable concentrates which were prepared by Example 10 were diluted with water 400 times and 800 times to form emulsions.
The square plates of beach of which a side was 5 cm long and thickness was 5 mm were dipped into the emulsion for 2 minutes and dried for 24 hours at room temperature.
The square plates were placed on the surface of agar plates. The suspensions which contained spores of Aspergillus niger, Penicillium citrinum, Cladosporium harbarum and chaetomium globosum were respectively sprayed on the agar plates and the square plates.
The test fungi were cultivated in the incubator at the humidity of 95% and the temperature of 28° C for 2 weeks.
The degree of growth inhibition is defined in terms of the following numerical ratings.

[4] = system: seedling blight of rice plant (pathogen Fusarium sp. and Rhizoctonia sp.); assay: Exterminating test on seedling blight of rice plant (Experimental Example 1); type: in vivo; conditions: 0.25g/box a.i., 5% dust mixed with soil
In short: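 Pathogen-contaminated nursery soil (Fusarium sp., Rhizoctonia sp.) mixed with 5% compound dust at 5 g per box; Nihonbare rice sown, grown 7 days at 17° C in lighting chamber, then moved to field. Assessed 10 days later as percentage of healthy seedlings; commercial 4% hydroxyisoxazol dust run as control.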

Escherichia coli = assay: Minimum inhibitory concentration, dilution methods (Example 14); type: cell-based; conditions: (3) glucose bouillon medium dilution method
Description: (§1) Bacteriocidal activity and fungicidal activity of the active compounds of the present invention were examined by potato-dextrose agar dilution method, [2] waxman's liquid medium dilution method or [3] glucose bouillon medium dilution method. The results are shown in Table 4 below as the minimum inhibitory concentration (the minimum concentration of active compound found to produce 100% control of the test bacteria and fungi).

Bacillus subtilis [5] = assay: as above; type: cell-based; conditions: (3) glucose bouillon medium dilution method
Description: as §1

Cladosporium harbarum = assay: as above; type: cell-based; conditions: (1) potato-dextrose agar dilution method
Description: as §1

Aspergillus niger [6] = assay: as above; type: cell-based; conditions: (1) potato-dextrose agar dilution method
Description: as §1

Penicillium Citrinum [7] = assay: as above; type: cell-based; conditions: (1) potato-dextrose agar dilution method
Description: as §1

Staphylococcus aureus [8] = assay: as above; type: cell-based; conditions: (3) glucose bouillon medium dilution method
Description: as §1

Bacillus subtilis [9] = assay: Growth inhibition zone around treated cotton cloth (Example 18); type: cell-based; conditions: emulsifiable concentrate diluted 1000 times
Description: (§2) The emulsifiable concentrates which were prepared by Example 10 were diluted with water 1000 times to form an emulsion. A cloth of cotton was soaked into each emulsion for 2 minutes. The clothes were dried at room temperature and cut into a square of which a side was 1 cm long. Each kind of test bacteria and fungi was inoculated, separately on plates of potato-agar and one square cloth was placed on each of such plates. Test bacteria and fungi were cultivated at 28° C for 4 days. The width of the region of growth-inhibition which was formed a circumference of the cloth was examined.

Aspergillus niger [10] = assay: as above; type: cell-based; conditions: emulsifiable concentrate diluted 1000 times
Description: as §2

Penicillium Citrinum [11] = assay: as above; type: cell-based; conditions: emulsifiable concentrate diluted 1000 times
Description: as §2

Staphylococcus aureus [12] = assay: as above; type: cell-based; conditions: emulsifiable concentrate diluted 1000 times
Description: as §2

summer orange seedlings = assay: Phytotoxicity on summer orange seedlings (Experimental Example 6); type: in vivo; conditions: 1,000 ppm
fungi = assay: Degree of propagation on slime test boards (Example 19); type: cell-based; parameters: key: -: no propagation; +: the area of propagation is 1 - 25% on the slime test boards.; ++: the area of propagation is 26 - 50% on the slime test boards.; +++: the area of propagation is 51 - 75% on the slime test boards.; ++++: the area of propagation is 76 - 100% on the slime test boards
Description: (§3) Zero point zero two (0.02) part of active compounds in the form of 10% water soluble concentrate which was prepared by Example 13 was added into 100 parts of Waxman's liquid medium. Pieces of wood and iron (hereafter referred to as the slime test boards) were soaked into the Waxman's liquid medium. The bacteria which were gathered from circular water system were inoculated upon the Waxman's liquid medium and incubated at 27° C-34° C by shaking culture. The degree of propagation of the bacteria on the slime test boards was examined.
(§4) The growth-inhibiting activity of active compounds against the fungi and the green algae was also examined by the same method as mentioned above.
(§5) The degree of propagation of the bacteria, fungi or green algae on the slime test boards is defined in terms of the following symbols.

green algae = assay: as above; type: cell-based; parameters: key: -: no propagation; +: the area of propagation is 1 - 25% on the slime test boards.; ++: the area of propagation is 26 - 50% on the slime test boards.; +++: the area of propagation is 51 - 75% on the slime test boards.; ++++: the area of propagation is 76 - 100% on the slime test boards
Description: as §3, §4, §5

[13] = system: bacteria gathered from circular water system; assay: as above; type: cell-based; parameters: key: -: no propagation; +: the area of propagation is 1 - 25% on the slime test boards.; ++: the area of propagation is 26 - 50% on the slime test boards.; +++: the area of propagation is 51 - 75% on the slime test boards.; ++++: the area of propagation is 76 - 100% on the slime test boards
Description: as §3, §4, §5

Pseudomonas fluorescens = assay: Minimum inhibitory concentration, dilution methods (Example 14); type: cell-based; conditions: (1) potato-dextrose agar dilution method
Description: as §1

[14] = system: cucumber (variety; Tokiwazibai); assay: Phytotoxicity on cucumber (Experimental Example 4); type: in vivo; conditions: 500 ppm
Description: Exterminating test on Fusarium wilt of cucumber Twenty (20) grams of infected soil was added uniformly into each pot which was filled with steam sterilized field soil, then 18 seeds of cucumber (variety; Tokiwazibai) were sowed in each pot. Eighty percent (80%) wettable powder of the present invention was diluted with water to obtain a suspension, and each pot was drenched with the suspension in an amount of 100 ml. Fifty percent (50%) wettable powder of methyl-1-(butylcarbamoyl) 2-benzimidazol carbamate (hereinafter referred to as Benlate) on the market was used as a control and tested by the same method. After two weeks of planting, degrees attacked by the pathogen was observed and a "percentage of healthy seedlings" was calculated as follows: [formula]

## O=C(NC=C(Cl)Cl)c1ccccc1[O-].O=C(NC=C(Cl)Cl)c1ccccc1[O-].[Zn+2] [compound 24]
[1]
  Percentage of healthy seedlings: 100%
[2]
  Percentage of healthy seedlings: 47.0%
[3]; 0.0125 %
  Degree of growth inhibition: 3
[3]; 0.025 %
  Degree of growth inhibition: 3
[4]
  Percentage of healthy seedlings: 71.3%
Escherichia coli
  minimum inhibitory concentration: 40 mc g/ml
Bacillus subtilis [5]
  minimum inhibitory concentration: 2.5 mc g/ml
Cladosporium harbarum
  minimum inhibitory concentration: 2.5 mc g/ml
Aspergillus niger [6]
  minimum inhibitory concentration: 10 mc g/ml
Penicillium Citrinum [7]
  minimum inhibitory concentration: 10 mc g/ml
Staphylococcus aureus [8]
  minimum inhibitory concentration: 5 mc g/ml
Bacillus subtilis [9]
  width of the growth inhibition zone: 10 mm
Aspergillus niger [10]
  width of the growth inhibition zone: 5 mm
Penicillium Citrinum [11]
  width of the growth inhibition zone: 5 mm
Staphylococcus aureus [12]
  width of the growth inhibition zone: 8 mm

## O=C(NC=C(Cl)Cl)c1ccccc1O [Compound No. 23]
Summer orange seedlings
  Phytotoxicity: Nil
fungi; 7th day
  Degree of propagation: -
fungi; 14th day
  Degree of propagation: -
fungi; 21st day
  Degree of propagation: -
Green algae; 7th day
  Degree of propagation: -
Green algae; 14th day
  Degree of propagation: -
Green algae; 21st day
  Degree of propagation: + (the area of propagation is 1 - 25% on the slime test boards.)
[13]; 7th day
  Degree of propagation: -
[13]; 14th day
  Degree of propagation: -
[13]; 21st day
  Degree of propagation: + (the area of propagation is 1 - 25% on the slime test boards.)
[3]; 0.0125 %
  Degree of growth inhibition: 3
[3]; 0.025 %
  Degree of growth inhibition: 3
Pseudomonas fluorescens
  minimum inhibitory concentration: 13 mc g/ml
Escherichia coli
  minimum inhibitory concentration: 60 mc g/ml
Bacillus subtilis [5]
  minimum inhibitory concentration: 5 mc g/ml
Cladosporium harbarum
  minimum inhibitory concentration: 5 mc g/ml
Aspergillus niger [6]
  minimum inhibitory concentration: 10 mc g/ml
Penicillium Citrinum [7]
  minimum inhibitory concentration: 10 mc g/ml
Staphylococcus aureus [8]
  minimum inhibitory concentration: 10 mc g/ml

## CCCCNC(=O)n1c(NC(=O)OC)nc2ccccc21 [Benlate, methyl-1-(butylcarbamoyl) 2-benzimidazol carbamate, reference compound]
[14]
  Phytotoxicity: Nil
[2]; Fusarium, 336 h, read-out: Percentage of healthy seedlings
  pest or weed control at 500 ppm: 45%
